In ChEMBL document CHEMBL1158910, “The gastric cytoprotective effect of several sesquiterpene lactones” (J Nat Prod, 1990):
Calls of active or inactive are those of the source. The rule behind the calls is not given here.

Legend:
[1] = tested on: Rattus norvegicus; assay: Antiulcerogenic activity in Wistar rat assessed as cytoprotection against ethanol-induced gastric lesions at 40 mg/kg administered 60 mins before ethanol challenge; type: functional, organism-based; design: dose 40 mg/kg; conditions: Stomach
[2] = tested on: Rattus norvegicus; assay: Antiulcerogenic activity in Wistar rat assessed as cytoprotection against ethanol-induced gastric lesions administered 60 mins before ethanol challenge; type: functional, organism-based; conditions: Stomach

SMILES | Activity [1] | Activity [2]
C=C1C(=O)O[C@@H]2C[C@@H](C)[C@@H]3C=CC(=O)[C@@]3(C)[C@@H](O)[C@H]12 | Active | 
C=C1C(=O)O[C@@H]2[C@H]1CC[C@H](C)[C@@]1(O)C=CC(=O)[C@@]21C | Active | Dose-dependent effect
C=C1C(=O)O[C@@H]2[C@H]3C(=C)[C@@H](O)C[C@H]3C(=C)C[C@H](OC(=O)/C(C)=C\C)[C@@H]12 | Active | 
CC1=CC(=O)C2=C(C)CC[C@@H]3[C@H](OC(=O)[C@H]3C)[C@@H]12 | inactive | 
C=C1C(=O)O[C@@H]2[C@H]3C(C)=CC(=O)C3=C(C)CC[C@@H]12 | Active | Dose-dependent effect
C=C1C(=O)O[C@H]2[C@H](O)[C@@H](C)[C@@H]3[C@@H](OC(=O)/C(C)=C\C)C[C@H](O)[C@@]3(C)[C@H](OC(C)=O)[C@H]12 | Active | 
C=C1C(=O)O[C@H]2[C@H]1CCC(C)=C1C[C@H]3O[C@@]3(C)[C@@H]12 | Active | 
C=C1C(=O)O[C@H]2C[C@@H](C)[C@@H]3C=CC(=O)[C@@]3(C)[C@H](O)[C@H]12 | Active | 
